Assay results reported in patent publication US20040038861A1, “Methods and compositions for normalizing lipid levels in mammalian tissues” (priority 2001, published 2004).
Values belong to the molecule of their own block, whether it stands above or below them. Where no end group is shown, it is not given here.

Columns and labels:
soleus muscle [1] = experiment: cAMP content of isolated soleus muscle from normal fed rats; assay type: cell-based, rat; conditions: for cAMP content in soleus muscles: 1 μM isoproterenol
Experimental: (§1) Soleus muscle preparation. All experiments were performed according to protocols approved by the Institutional Animal Ethics Committee. 5-6 week-old male Wistar rats (160 g) were kept on a 12:12-h light/dark cycle, and fed and watered ad libitum. Animals were anaesthetised with 50 mg/kg Nembutal (pentobarbitone sodium), then sacrificed by cervical dislocation. Soleus muscles were dissected under oxygenated KHB (118 mM NaCl, 4.75 mM KCl, 1.2 mM MgSO4, 24.8 mM NaHCO3, 1.2 mM KH2PO4, 2.54 mM CaCl2, 10 mM glucose, pH 7.4) and teased into halves, then incubated as described below.
For the measurement of cAMP in muscle, isolated soleus strips were incubated with stated concentrations of peptides, then lyophilized and deproteinized. Each strip was placed in 400 μl of 0.5 M HClO4 with 5 mM EDTA (phosphodiesterase inhibitor) and sonicated three times in 20 s bursts. Tubes were heated for 3-5 min in boiling water to coagulate protein, then centrifuged (12,000 g, 4° C., 2 min). Supernatant (300 μl) was taken and the pH adjusted to 7.0 with 75 μl of 2 M NH4OH. The samples were refrigerated (4° C., 2 h) to precipitate proteins, then centrifuged under the same conditions as above and 50 μl taken for cAMP measurement.

soleus muscle [2] = experiment: Lipid metabolites (free fatty acid, glycerol, triglyceride; enzymatic analysis) in isolated soleus muscle from normally fed rats; assay type: cell-based, rat; conditions: 1 h
soleus muscle [3] = experiment: Glucose transport (2-deoxy-D-glucose uptake) in incubated soleus muscle strips; assay type: cell-based, rat
Experimental: as §1
Determination of rates of glucose transport in incubated soleus muscle strips. 4-5 muscle strips were added to each flask, which contained 10 ml DMEM. They were pre-incubated with hormones as indicated for 30 min at 30° C. in a shaking water bath, after which 5 μl of 2[^3H]DOG (0.5 μCi/ml) and 5 μl D[^14C(U)]sorbitol (0.05 μCi/ml) were added, then incubated for another 30 min; RIA grade BSA was added to 0.9% (w/v) to prevent non-specific binding of insulin to flasks. Following incubation, muscle strips were transferred to ice-cold KHB for 5-10 min to remove excess [^3H]DOG and [^14C]sorbitol. They were then blotted, frozen, tendons excised, then lyophilized for a further 48 h. Muscles were then weighed, transferred to scintillation vials and digested with 0.5 ml 1 M NaOH at 60° C. for 1 h. Scintillation fluid (4 ml) was added to each vial, and samples counted in a Beckman liquid scintillation spectrometer, preset to count ^14C and ^3H channels simultaneously. The amount of each isotope present in the samples was determined and used to calculate the extracellular space and the intracellular concentration of [^3H]DOG. The accumulation of intracellular [^3H]DOG, a measure of muscle glucose uptake, was calculated by subtracting the concentration of [^3H]DOG in the extracellular space from the corresponding total muscle [^3H]DOG]; extracellular [^3H]DOG was quantified by measuring the muscle concentration of [^14C]sorbitol.
Data analysis. One way ANOVA, Dunnett's Multiple Comparisons Test, and unpaired Student's t-tests were used to calculate the statistical significance of differences, as appropriate. Dose-response curves were fitted to a sigmoidal dose-response algorithm, as follows: Y=minimum+(maximum−minimum)/([…] log ^(EC50^−X), for 2-DOG-uptake; and by a four parameter logistic model, Y=minimum+(maximum−minimum)/(1+10 log ^(EC50^−X)Hill-Coefficient) for total glycogen and [^14C]glucose incorporation. Calculations were performed using Prism v2.0 (GraphPad Software, San Diego, Calif.) to derive values for half-maximal effective concentration (EC50). Displacement curves derived for competition of bound radioligand with cold ligand in transfected cells were calculated according to a one site competition fit using Prism v2.0.

[4] = target: metabolic amylin receptor

Molecule: CNCC(O)c1ccc(O)c(O)c1 (centres unmarked) [adrenaline]
- cAMP content, agonist alone (soleus muscle [1]; normal fed, 100 nM CGRP or adrenaline, control 3.9±0.2): 9.6 ± 0.7 pmol/mg

Molecule: CC(C)NCC(O)c1ccc(O)c(O)c1 (centres unmarked) [isoproterenol]
- cAMP content in soleus muscles (soleus muscle [1]; experiment of FIG. 13A): 3.5 ± 0.2 pmol/mg
- cAMP content in soleus muscles (soleus muscle [1]; experiment of FIG. 13B): 3.8 ± 0.2 pmol/mg

Molecule: insulin: Soluble human insulin (Actrapid 100U, Novo Nordisk)
- free fatty acid content in conjunction with 100 nM CGRP (soleus muscle [2]; 10 μM antagonist or maximally stimulating insulin (23.7 nM) + 100 nM CGRP, CGRP alone 334±52): 107 ± 17 nmol/g
- free fatty acid content in conjunction with 100 nM amylin (soleus muscle [2]; 10 μM antagonist or maximally stimulating insulin (23.7 nM) + 100 nM amylin, amylin alone 216±26): 100 ± 11 nmol/g
- intramuscular free fatty acid content (soleus muscle [2]; soleus, normally fed rats, 100 nM amylin or CGRP-1, 4.4 μM norepinephrine, 23.7 nM insulin, control 78±21): 67 ± 9 nmol/g
- 2-DOG-uptake (soleus muscle [3]; hormone alone (amylin 10 nM; insulin 23.7 nM), basal 8.8 ± 0.9): 28.4 ± 6.4 nmol/g dry-wt muscle/min
- stimulation of glucose uptake (soleus muscle [3]; insulin 23.7 nM vs basal): 3.2 fold

- EC50, total glycogen content, with insulin (23.7 nM) [4]: 4.3 nM
Molecule: rat CGRP-1 (ligand; unit assumed)

- EC50, total glycogen content, with insulin (23.7 nM) [4]: 8.1 nM
Molecule: rat amylin (from UniProt P12969) (ligand; unit assumed)

- EC50, total glycogen content, with insulin (23.7 nM) [4]: 0.6 nM
Molecule: salmon calcitonin (from UniProt P01263) (ligand; unit assumed)

- EC50, ^14C-glucose incorporation into glycogen, with insulin (23.7 nM) [4]: 0.9 nM
- EC50, ^14C-glucose incorporation into glycogen, without insulin [4]: 0.1 nM
- EC50, total glycogen content, without insulin [4]: 1.7 nM
B1: salmon calcitonin (ligand)
peptide: CSNLSTCVLGKLSQELHKLQTYPRTNTGSGTP
modifications: ends and bridges not checked; cysteine pairing not given here
